Reference: US20240344020A1, “CULTURE MEDIUM FOR LUNG CANCER EPITHELIAL CELLS, CULTURE METHOD, AND APPLICATION THEREOF” (PRECEDO PHARMACEUTICALS CO., LTD, priority 2021, published 2024)

B1: fibroblast growth factor 7: growth factor from Sino Biological Inc. (protein, UniProt P21781 32-194, looked up)
Fibroblast growth factor 7: CNDMTPEQMATNVNCSSPERHTRSYDYMEGGDIRVRRLFCRTQWYLRIDKRGKVKGTQEMKNNYNIMEIRTVAVGIVAIKGVESEFYLAMNKEGKLYAKKECNEDCNFKELILENHYNTYASAKWTHNGGEMFVALNQKGIPVRGKKTKKEQKTAHFLPMAIT

tested on: primary lung cancer cells (No. B5); assay: Effects of different factors added to basic medium BM on proliferation of primary lung cancer cells (cell count after 12 days); type: cell-based, human; details: factor added alone to BM at the concentrations of Table 3; 12 days culture; FIGS. 1A-D
Procedure: Extracellular matrix gel (Matrigel®) (manufactured by BD Biosciences) was diluted with serum-free DMEM/F12 medium at a ratio of 1:100 to prepare an extracellular matrix diluent. The extracellular matrix diluent was added to a 48-well culture plate with 500 μl/well to completely cover the bottom of the wells of the culture plate. The culture plate was let stand for 1 hour in a 37° C. incubator. After 1 hour, the extracellular matrix diluent was removed to provide a Matrigel-coated plate.
Preparation of basic medium (abbreviated as BM): BM was prepared by adding 0.2 vol. % of Primocin (purchased from Invivogen, with a concentration of 50 mg/ml) to the commercial DMEM/F-12 medium to provide a final concentration of 100 μg/ml.
Next, different kinds and concentrations of additive factors (Table 3) were added to the basic medium (BM), so as to prepare culture mediums for lung cancer epithelial cells containing different additive components.
The culture mediums with different components were added at a volume of 500 μl/well to 48-well plates which were coated with extracellular matrix gel (Matrigel). Lung cancer cells (No. B5) isolated from lung cancer tissues according to the same method as described in Example 1 were inoculated at a cell density of 2×10^4 cells/cm^2 in the above-mentioned 48-well culture plates which were coated with Matrigel. After surface disinfection, the plates were placed in a 37° C., 5% CO2 incubator (purchased from Thermo Fisher), and the same number of freshly isolated lung cancer tumor cells (No. B5) were cultured under different medium formulations. The culture mediums were replaced every 4 days after the start of culture. After 12 days of culture, cell counts were performed. The basic medium (BM) without addition of any additive was used as a control. The results were shown in FIGS. 1A-D. The ordinate in the figures represents the ratio of the number of cells obtained after culture in different mediums to the number of cells obtained after culture in basic medium BM.

Molecule	effect on cell proliferation (ratio of cell number to that in basic medium BM)
C[C@@H](N)[C@H]1CC[C@H](C(=O)Nc2ccncc2)CC1 [Compound Y27632, Y27632, reference compound]	certain promoting effects on cell proliferation
Cc1cccc(-c2nn(C(=S)Nc3ccccc3)cc2-c2ccnc3ccccc23)n1 [Compound A83-01, A83-01, reference compound]	certain promoting effects on cell proliferation
CN1C(=O)C(c2c(F)cccc2F)N(C)c2nc(Nc3ccc(S(N)(=O)=O)cc3)ncc21 (stereo not shown) [Compound 1, 4-((7-(2,6-difluorophenyl)-5,8-dimethyl-6-oxo-5,6,7,8-tetrahydropteridin-2-yl)amino)benzsulfamide]	certain promoting effects on cell proliferation
insulin-like growth factor 1: growth factor from Sino Biological Inc.	certain promoting effects on cell proliferation
hepatocyte growth factor: growth factor from Sino Biological Inc.	certain promoting effects on cell proliferation
interleukin 6: cytokine from Sino Biological Inc.	certain promoting effects on cell proliferation
B1	certain promoting effects on cell proliferation
